Measurements: article PMC10287695, “Non-covalent inhibitors of thioredoxin glutathione reductase with schistosomicidal activity in vivo” (Nature Communications, 2023)
Like-named read-outs stand apart in the source and are kept apart here. Marks after values point to notes of the source that are not given here.

Assays:
[1] = biological target: T1, Human TrxR1 (Homo sapiens, UniProt Q16881); experiment: Human TrxR1 enzyme inhibition (DTNB reduction); assay type: biochemical; conditions: for inhibition at 15 µM: compound 15 µM; for inhibition at 30 µM: compound 30 µM
T1 construct: made in house
T1 sequence (Q16881 1-499 isoform Q16881-5): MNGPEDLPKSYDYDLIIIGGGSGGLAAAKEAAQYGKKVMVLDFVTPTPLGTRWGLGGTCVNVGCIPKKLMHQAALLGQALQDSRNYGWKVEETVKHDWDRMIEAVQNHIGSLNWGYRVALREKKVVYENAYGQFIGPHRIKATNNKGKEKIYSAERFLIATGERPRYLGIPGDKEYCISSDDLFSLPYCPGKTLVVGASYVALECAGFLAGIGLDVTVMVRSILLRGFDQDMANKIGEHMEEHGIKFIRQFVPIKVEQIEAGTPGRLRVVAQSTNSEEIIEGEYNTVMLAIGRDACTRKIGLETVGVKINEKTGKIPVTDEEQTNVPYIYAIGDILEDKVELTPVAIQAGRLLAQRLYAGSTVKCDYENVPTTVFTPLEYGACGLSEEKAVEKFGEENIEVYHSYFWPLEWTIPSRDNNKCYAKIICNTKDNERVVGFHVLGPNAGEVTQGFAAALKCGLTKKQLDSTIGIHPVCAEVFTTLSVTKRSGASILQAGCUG
Experimental: Recombinant TGR, human TrxR1, B. malayi (Bm)TrxR and human GR proteins were expressed and purified as described[20],[69],[79]. The codon optimized sequence for P. falciparum (PfTrxR, https://www.ncbi.nlm.nih.gov/protein/CAA60574.1/) with an N-terminal 6-His tag was synthesized and inserted into pET15b (GenScript) and expressed in BL21 (DE3) cells and purified as described for human GR[20]. TGR and TrxR enzyme inhibition assays were performed in triplicate at 25 °C as described[20] in 0.1 M potassium phosphate (pH 7.4), 10 mM EDTA, 100 µM NADPH and 0.01% Tween-20. […] The reaction was started with addition of an equal volume of DTNB (6 mM) and NADPH (100 µM) and the increase in A412 during the first 3 min was recorded. […] The reaction was preincubated for 15 min. Activity was initiated with the addition of 1 mM GSSG and 100 μM NADPH and initial rates of NADPH oxidation were monitored at 340 nm. The reactions were done in triplicate. The IC50 was calculated in GraphPad Prism.

[2] = biological target: T2, Human GR (Homo sapiens, UniProt P00390); experiment: Human GR enzyme inhibition (GSSG reduction, NADPH oxidation); assay type: biochemical; conditions: for inhibition at 15 µM / inhibition at 30 µM / inhibition at 66.7 µM / inhibition at 5 µM: hGR; for inhibition at 15 µM: compound 15 µM; for inhibition at 15 µM / inhibition at 30 µM / inhibition at 66.7 µM: read-out: % inhibition; for inhibition at 30 µM: compound 30 µM; for inhibition at 66.7 µM: compound 66.7 µM; for inhibition at 5 µM: compound 5 µM
T2 construct: made in house
T2 sequence (P00390 44-522): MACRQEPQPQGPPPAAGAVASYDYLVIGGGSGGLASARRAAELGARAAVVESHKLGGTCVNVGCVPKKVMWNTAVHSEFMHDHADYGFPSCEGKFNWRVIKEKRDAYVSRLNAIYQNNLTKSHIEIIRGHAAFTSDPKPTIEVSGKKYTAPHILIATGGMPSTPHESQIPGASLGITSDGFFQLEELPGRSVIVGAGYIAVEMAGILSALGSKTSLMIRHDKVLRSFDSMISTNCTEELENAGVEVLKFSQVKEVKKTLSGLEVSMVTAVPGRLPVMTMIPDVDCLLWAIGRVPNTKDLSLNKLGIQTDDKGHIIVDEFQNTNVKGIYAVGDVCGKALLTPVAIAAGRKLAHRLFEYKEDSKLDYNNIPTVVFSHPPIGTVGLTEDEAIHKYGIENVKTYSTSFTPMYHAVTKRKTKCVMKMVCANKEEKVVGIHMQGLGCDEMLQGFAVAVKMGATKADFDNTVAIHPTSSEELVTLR

[3] = tested on: S. mansoni newly transformed schistosomula (NTS); experiment: Schistosomicidal activity ex vivo, NTS (Cell Titer Glo); assay type: cell-based; conditions: for LD50 ex vivo S. mansoni NTS: 24 h exposure, Cell TiterGlo
Experimental: Oncomelania hupensis subsp. hupensis, Chinese strain, infected with S. japonicum, Chinese strain, and Biomphalaria glabrata, strain NMRI, infected with S. mansoni, strain NMRI, were provided by the NIAID Schistosomiasis Resource Center for distribution through BEI Resources, NIAID, NIH. After infections were patent, snails were exposed to bright light for 1 hr to obtain cercariae. Cercariae were mechanically transformed to schistosomula. Briefly, cercariae were placed on ice for 30 min and then centrifuged at 350 × g for 10 mins. The supernatant was decanted and 2 ml of serum-free M199 medium was added to cercarial pellets and vortexed for 1 min until cercarial tails were detached. NTS were purified by layering on 4 °C Percoll gradient suspension containing Eagle’s minimum essential medium, penicillin-streptomycin (10,000 U per ml penicillin/10,000 U per ml streptomycin), and 1 M HEPES in 0.85% NaCl with cercariae suspension and centrifuged at 500 × g for 15 min. Cercarial pellets were resuspended and washed thrice in serum-free M199 medium and collected at 100 × g for 5 min. NTS (240) were transferred to U-bottom 96 well assay plates containing 200 µl of M199 medium supplemented with 5.5 mM D-glucose, penicillin-streptomycin and 5% heat inactivated fetal bovine serum and incubated at 37 °C in a 5% CO2 incubator overnight.
DMSO formulated compounds were diluted with phenol red free M199 medium or RPMI medium for NTS or juvenile and adult worms, respectively, at <1% DMSO final concentrations. NTS, juvenile and adult worms from overnight cultures were tested against compounds in triplicate. Controls were treated with DMSO alone or 5 µM AF as a positive control in appropriate medium. Worm viability was assessed at 24 or 72 h by measuring ATP content of worms using Cell Titer Glo Assay (Promega) as described. Schistosome viabilities in the presence of the compounds were assessed using this formula: % Viability = Averages of Test / Averages of DMSO Control x 100.

[4] = 15 min preincubation (enzyme + 100 µM NADPH + compound), read-out: Human TrxR1 IC50
[5] = 6 h preincubation, read-out: Human TrxR1 IC50 (µM) or inhibition (%) at 66.7 µM: IC50
[6] = hsTrxR, 15 minutes pre-incubation
[7] = Schistosoma mansoni, 72 h, read-out: % viability, S. mansoni NTS
[8] = hsTrxR, 15 minutes pre-incubation, compound 66.7 µM, read-out: % inhibition
[9] = 66.7 µM, 6 h preincubation, read-out: Human TrxR1 IC50 (µM) or inhibition (%) at 66.7 µM: inhibition

Compound | IC50 [1, 4] [µM] | IC50 [1, 5] [µM] | inhibition at 15 µM [1, 6] [%] | inhibition at 30 µM [1, 6] [%] | Human GR (inhibition at 66.7 µM) [2] | inhibition at 15 µM ([2]; 15 minutes pre-incubation) [%] | inhibition at 30 µM ([2]; 15 minutes pre-incubation) [%] | inhibition at 15 µM ([2]; 6 hours pre-incubation) [%] | inhibition at 30 µM ([2]; 6 hours pre-incubation) [%] | LD50 ex vivo S. mansoni NTS [3] | LD50 NTS after 72 h exposure [3] [µM] | viability at 1 µM ([3]; Schistosoma mansoni) [%] | viability at 5 µM ([3]; Schistosoma mansoni) [%] | viability at 15 µM ([3]; Schistosoma mansoni) [%] | viability at 30 µM ([3]; Schistosoma mansoni) [%] | viability at 50 µM ([3]; Schistosoma mansoni) [%] | inhibition at 66.7 µM [1, 8] [%] | inhibition at 66.7 µM ([2]; 15 minutes pre-incubation) [%] | inhibition at 66.7 µM ([2]; 6 hours pre-incubation) [%] | inhibition at 66.7 µM [1, 9] [%] | also measured
Cc1oc(-c2ccc3c(c2)OCO3)nc1CN[C@@H]1C[C@@H]2C[C@H]([C@H]1C)C2(C)C [Compound 1] | > 66.7 | 37 ± 3.44 | 6.99 | 11.4 | n.i. | -1.22 | -0.832 | -0.519 | -1.06 | 5.9 ± 0.25 µM | 2.2 ± 0.19 | 89.9 | 52.7 | 30 | 24.6 | 17.6 |  |  |  |  | viability at 0.25 µM [3, 7]: 92.1%; viability at 1 µM [3, 7]: 71.2%; viability at 3 µM [3, 7]: 48.1%; viability at 6 µM [3, 7]: 23.4%
CCc1ccccc1-c1nc(CN[C@@H]2C[C@@H]3C[C@H]([C@H]2C)C3(C)C)c(C)o1 [Compound 2] | > 66.7 | 50 ± 13.6 | 2.2 | 4.72 | n.i. | -0.995 | -1.9 | -5.17 | -3.97 | 0.6 ± 0.21 µM | 0.18 ± 0.007 | 47.9 | 0.373 | 0.0945 | 0.0764 | 0.0707 | 11.5 | -0.827 | -3.29 |  | viability at 0.125 µM [3, 7]: 65%; viability at 0.25 µM [3, 7]: 40.4%; viability at 0.5 µM [3, 7]: 3.04%; viability at 1 µM [3, 7]: 0.411%
Cc1oc(-c2ccccc2)nc1CN[C@@H]1C[C@@H]2C[C@H]([C@H]1C)C2(C)C [Compound 3] | > 66.7 | 42.7 ± 3.95 |  |  | n.i. |  |  |  |  | 4.3 ± 0.20 µM |  |  |  |  |  |  |  |  |  |  | 
Cc1oc(C2CCCCC2)nc1CN[C@@H]1C[C@@H]2C[C@H]([C@H]1C)C2(C)C [Compound 4] | > 66.7 | 19 ± 5.72 | 14.3 | 26.9 | n.i. |  |  |  |  | 0.85 ± 0.11 µM |  |  |  |  |  |  | 40.2 |  |  |  | 
Cc1oc(-c2ccc3ccccc3c2)nc1CNC1CCCCCC1 [Compound 5] | > 66.7 |  |  |  | n.i. |  |  |  |  | 5.8 ± 0.15 µM |  |  |  |  |  |  |  |  |  | 28.5 | 
C#CCN(Cc1nc(-c2ccccc2)oc1C)[C@@H]1C[C@@H]2C[C@H]([C@H]1C)C2(C)C [Compound 6] | > 66.7 |  |  | 1.95 | n.i. | -0.749 |  | -0.648 |  | 17.5 ± 3.7 µM | 7.8 ± 2.36 |  | 81.1 | 57 | 30.8 | 26.4 | 2.61 | -0.295 | -0.21 | 28.9 | viability at 1.25 µM [3, 7]: 86%; viability at 2.5 µM [3, 7]: 73.8%; viability at 5 µM [3, 7]: 55.5%; viability at 10 µM [3, 7]: 45.1%
Cc1oc(C2CCCCC2)nc1C(=O)N[C@@H]1C[C@@H]2C[C@H]([C@H]1C)C2(C)C [Compound 7] | 22.3 ± 2.03 |  | 38.1 | 63.3 | n.i. | -0.669 | -0.696 | -0.918 | -2.19 | 4.7 ± 0.31 µM |  | 85.7 | 40.2 |  |  |  | 92.7 | -1.12 | -0.656 |  | viability at 1.5 µM ([3]; Schistosoma mansoni): 72.1%; viability at 2.5 µM ([3]; Schistosoma mansoni): 47.6%
C[C@@H]1[C@H]2C[C@@H](C[C@H]1NCc1nc3ccccc3n1C1CCCCCC1)C2(C)C [Compound 8] | 4.9 ± 1.72 |  |  |  | n.i. | -0.934 | -0.111 | -4.52 | -1.03 | 9.4 ± 0.74 µM |  | 91.9 | 84.8 | 28.2 | 11.9 | 1.87 |  | -0.91 | 9.42 |  | inhibition at 2.5 µM ([1]; hsTrxR, 15 minutes pre-incubation, compound 2.5 µM): 37.2%; inhibition at 5 µM ([1]; hsTrxR, 15 minutes pre-incubation, compound 5 µM): 49.7%; inhibition at 10 µM ([1]; hsTrxR, 15 minutes pre-incubation, compound 10 µM): 61.6%; inhibition at 5 µM ([2]; 15 minutes pre-incubation): -0.362%; inhibition at 5 µM ([2]; 6 hours pre-incubation): -1.4%; viability at 0.1 µM ([3]; Schistosoma mansoni): 99.8%; viability at 10 µM ([3]; Schistosoma mansoni): 33.1%; viability at 100 µM ([3]; Schistosoma mansoni): 0.303%
CC1C(NCc2cn(C3OCC(O)C(O)C3O)c3ccccc23)CC2CC1C2(C)C (centres unmarked) [Compound 9] | 70.5 ± 11.4 |  | 5.09 | 8.68 | n.i. | -0.142 | -2.5 | -0.844 | -1.45 | 11.14 ± 1.04 µM |  |  |  |  |  |  | 14.5 | -1.69 | -3.11 |  | 
C[C@@H]1[C@H]2C[C@@H](C[C@H]1NCc1nc3ccccc3n1C)C2(C)C [Compound 12] | > 66.7 |  |  |  | n.i. |  |  |  |  | >50^a µM |  |  |  |  |  |  |  |  |  | 28.6 | 
